Assays:
[1] = Antioxidant activity assessed as DPPH free radical scavenging activity at 100 uM after 40 mins by UV-Vis spectrophotometry; format: physicochemical
Brain = experiment: Reduction of MDA level in Wistar rat brain at 100 uM after 30 mins in presence of ascorbic acid by UV-vis spectrophotmetry relative to control; format: functional; settings: 0.5 h
[2] = target: Aldo-keto reductase family 1 member B1 (Rattus norvegicus, UniProt P07943); experiment: Inhibition of ALR2 from rat lens using D,L-glyceraldehyde as substrate measured as absorption of NADPH for 4 mins by UV/vis spectrophotmetry
[3] = Antioxidant activity assessed as DPPH free radical scavenging activity at 10 uM after 120 mins under sunlight by UV-Vis spectrophotometry; format: physicochemical; settings: 2 h
[4] = Antioxidant activity assessed as DPPH free radical scavenging activity at 100 uM after 120 mins under sunlight by UV-Vis spectrophotometry; format: physicochemical; settings: 2 h
[5] = Antioxidant activity assessed as DPPH free radical scavenging activity after 30 mins under sunlight by UV-Vis spectrophotometry; format: physicochemical
[6] = Antioxidant activity assessed as DPPH free radical scavenging activity at 1 uM after 30 mins under sunlight by UV-Vis spectrophotometry; format: physicochemical; settings: 0.5 h
[7] = Antioxidant activity assessed as DPPH free radical scavenging activity at 100 uM after 30 mins under sunlight by UV-Vis spectrophotometry; format: physicochemical; settings: 0.5 h
[8] = Antioxidant activity assessed as DPPH free radical scavenging activity at 10 uM after 30 mins under sunlight by UV-Vis spectrophotometry; format: physicochemical; settings: 0.5 h
[9] = Antioxidant activity assessed as DPPH free radical scavenging activity at 10 uM after 40 mins by UV-Vis spectrophotometry; format: physicochemical
[10] = Antioxidant activity assessed as DPPH free radical scavenging activity at 1 uM after 40 mins by UV-Vis spectrophotometry; format: physicochemical

SMILES | inhibition (INH) [1] | IC50 [2] | inhibition at 100 µM (Brain) | other results
COc1ccc(CN2CN(CC(=O)O)c3ccc(OC)cc3S2(=O)=O)cc1 | 40.6% | 11.2 µM | 31.5% | –
COc1ccc(CN2CN(CC(=O)O)c3ccc(Cl)cc3S2(=O)=O)cc1 | 5.9% | 7.5 µM | 1.6% | –
COc1ccc2c(c1)S(=O)(=O)N(Cc1ccccc1)CN2CC(=O)O | 53.1% | 13.6 µM | 42.3% | –
Cc1ccc2c(c1)S(=O)(=O)N(Cc1cc(O)ccc1F)CN2CC(=O)O | 32.3% | 4.8 µM | 14.1% | –
COc1ccc(CN2CN(CC(=O)O)c3ccc(C)cc3S2(=O)=O)cc1 | 3.1% | 18.2 µM | 8.4% | –
O=C(O)CN1CN(Cc2ccc(O)cc2)S(=O)(=O)c2cc(O)ccc21 | – | 7.6 µM | 100% | EC50 [5]: 7.6 µM; inhibition (INH) [6]: 42.1%; inhibition (INH) [7]: 98%; inhibition (INH) [8]: 92.3%
COc1ccc(F)c(CN2CN(CC(=O)O)c3ccc(C)cc3S2(=O)=O)c1 | 18.9% | 3.5 µM | 4.47% | –
Cc1ccc2c(c1)S(=O)(=O)N(Cc1ccc(O)cc1)CN2CC(=O)O | 5.2% | 5.6 µM | 11% | –
Cc1c(C)c2c(c(C)c1O)CCC(C)(C(=O)O)O2 (stereo not drawn) [TROLOX] | 97% | – | 100% | inhibition (INH) [9]: 91.1%; inhibition (INH) [10]: 32%

Further lines, with some results ahead:

inhibition (INH) [1] | IC50 [2] | SMILES | inhibition at 100 µM (Brain) | other results
6.2% | 7.2 µM | COc1ccc(CN2CN(CC(=O)O)c3ccc(Br)cc3S2(=O)=O)cc1 | 2.6% | –
– | 9.4 µM | O=C(O)CN1CN(Cc2ccccc2)S(=O)(=O)c2cc(O)ccc21 | 88% | inhibition (INH) [3]: 24.4%; inhibition (INH) [4]: 93.3%
44.3% | 1.8 µM | COc1ccc(F)c(CN2CN(CC(=O)O)c3ccc(Br)cc3S2(=O)=O)c1 | 9.55% | –
0% | – | CC(/C=C1\SC(=S)N(CC(=O)O)C1=O)=C\c1ccccc1 | 0% | –

Reference: ChEMBL document CHEMBL3797117 (Bioorg Med Chem Lett, 2016)
